In US7368606B2, “Amorphous cinacalcet hydrochloride and preparation thereof” (Teva Pharmaceutical Industries Ltd., priority 2005, dated 2008):

Assays:
[1] = Stability of amorphous cinacalcet HCl on storage at ambient temperature (PXRD); type: physicochemical; conditions: stored at ambient temperature in a closed bottle for 2 months, hydrochloride
Protocol: Powder X-Ray powder diffraction data were obtained using a […] powder X-Ray diffractometer model X'TRA equipped with a solid state detector and a variable gonimeter. Copper radiation of 1.5418 Å was used. A round standard aluminum sample holder with round zero background, and cavity of 25(diameter)*0.5(dept) mm. Scanning parameters were in the range of 2-40°2θ and a continuous scan rate of 3°/min.

[2] = Water content and solid form of amorphous cinacalcet HCl after exposure to humidity (KF titration, PXRD); type: physicochemical; conditions: 100 percent relative humidity; for Solid form by PXRD after exposure to humidity (physical stability): hydrochloride
Protocol: Powder X-Ray powder diffraction data were obtained using a SCINTAG powder X-Ray diffractometer model X'TRA equipped with a solid state detector and a variable gonimeter. Copper radiation of 1.5418 Å was used. A round standard aluminum sample holder with round zero background, and cavity of 25(diameter)*0.5(dept) mm. Scanning parameters were in the range of 2-40°2θ and a continuous scan rate of 3°/min.
100 mg amorphous cinacalcet HCl was spread as a thin layer, and exposed to 100 percent relative humidity for 8 days. The sample was than tested by PXRD and by Karl Fischer (“KF”) titration. Amorphous cinacalcet HCl was obtained with water content of 1.4 percent.

C[C@@H](NCCCc1cccc(C(F)(F)F)c1)c1cccc2ccccc12.Cl [Amorphous Cinacalcet HCl, Cinacalcet hydrochloride]
Solid form by PXRD after storage (physical stability) [1]: amorphous content | Solid form by PXRD after storage (physical stability) ([1]; listed as Amorphous cinacalcet): stable under prolonged storage | Water content by Karl Fischer titration after exposure to humidity ([2]; 100 mg spread as a thin layer, 8 days): 1.4% | Solid form by PXRD after exposure to humidity (physical stability) ([2]; 8 days, listed as Amorphous cinacalcet): stable at high humidity levels | Solid form by PXRD after exposure to humidity (physical stability) ([2]; 8 days, listed as amorphous cinacalcet HCl): Amorphous | Hygroscopicity ([2]; as shown in Example 2): non-hygroscopic
